The source made the active and inactive calls. The rule behind the calls is not given here.

The test system of this data set is rodent carcinogenicity bioassays, tumor incidence. The data set can be described thus: CCRIS carcinogenicity studies. Particulars: Dose: 0, Dose: 0. Put shortly:
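NCI-built, expert-reviewed records of carcinogenicity and related test outcomes (mutagenicity, tumor promotion/inhibition) compiled from published and report sources, historical span 1985-2011, not updated.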

As for `O=[N+]([O-])c1ccc(Oc2ccc(Cl)cc2Cl)cc1`, the carcinogen call is “active; positive” (Species: MOUSE, Strain/Sex: B6C3F1/FEMALE, Route: ORAL, 2348, 4696 PPM IN DIET, TWA, 2348, 4696 PPM IN DIET, TWA, Tumor Site: Type of Lesion: LIVER: HEPATOCELLULAR CARCINOMA OR NEOPLASTIC NODULE); “active; positive” (Species: MOUSE, Strain/Sex: B6C3F1/FEMALE, Route: ORAL, 3000, 6000 PPM IN DIET, 3000, 6000 PPM IN DIET, Tumor Site: Type of Lesion: LIVER: HEPATOCELLULAR ADENOMA OR CARCINOMA); “active; positive” (Species: MOUSE, Strain/Sex: B6C3F1/MALE, Route: ORAL, 2348, 4696 PPM IN DIET, TWA, 2348, 4696 PPM IN DIET, TWA, Tumor Site: Type of Lesion: LIVER: HEPATOCELLULAR CARCINOMA); “active; positive” (Species: MOUSE, Strain/Sex: B6C3F1/MALE, Route: ORAL, 3000, 6000 PPM IN DIET, 3000, 6000 PPM IN DIET, Tumor Site: Type of Lesion: LIVER: HEPATOCELLULAR ADENOMA OR CARCINOMA); “inactive; negative” (Species: RAT, Strain/Sex: F344/FEMALE, Route: ORAL, 3000, 6000 PPM IN DIET, 3000, 6000 PPM IN DIET); “inactive; negative” (Species: RAT, Strain/Sex: F344/MALE, Route: ORAL, 3000, 6000 PPM IN DIET, 3000, 6000 PPM IN DIET). Also, the carcinogen call (Species: RAT, Strain/Sex: OSBORNE-MENDEL/FEMALE, Route: ORAL, 1300, 2600 PPM IN DIET, TWA, 1300, 2600 PPM IN DIET, TWA, Tumor Site: Type of Lesion: PANCREAS: CARCINOMA) was “active; positive”.

Turning to `CCSC(=O)N(CC)C1CCCCC1`, the carcinogen call is, setting by setting: (Species: Mouse, Strain/Sex: C57 BL/10JfCD-1/Alpk/Female (50/group), Route: Oral, 300, 1,000, 3,000 ppm of 98.1% pure cycloate in feed for 18 mo, 300, 1,000, 3,000 ppm of 98.1% pure cycloate in feed for 18 mo) “inactive; negative”; (Species: Mouse, Strain/Sex: C57 BL/10JfCD-1/Alpk/Male (50/group), Route: Oral, 300, 1,000, 3,000 ppm of 98.1% pure cycloate in feed for 18 mo, 300, 1,000, 3,000 ppm of 98.1% pure cycloate in feed for 18 mo) “inactive; negative”.

`CCCCOC(=O)[C@@H](C)Oc1ccc(Oc2ccc(C(F)(F)F)cn2)cc1`: the carcinogen call is “inactive; negative” (Species: Hamster, Strain/Sex: Syrian golden/Female (51/Group), Route: Oral, 200, 750, 3000 ppm of 91.6% fluazifop-o-butyl (0; 10.6; 40; 158 mg/kg/day) in diet for 81-83 wks, study duration 83 w, 200, 750, 3000 ppm of 91.6% fluazifop-o-butyl (0; 10.6; 40; 158 mg/kg/day) in diet for 81-83 wks, study duration 83 w); “inactive; negative” (Species: Hamster, Strain/Sex: Syrian golden/Male (51/Group), Route: Oral, 200, 750, 3000 ppm of 91.6% fluazifop-o-butyl (0; 11.1; 42; 174 mg/kg/day) in diet for 81-83 wks, study duration 83 w, 200, 750, 3000 ppm of 91.6% fluazifop-o-butyl (0; 11.1; 42; 174 mg/kg/day) in diet for 81-83 wks, study duration 83 w); “inactive; negative” (Species: Rat, Strain/Sex: Wistar/Female (60/Group), Route: Oral, 2, 10, 80, 250 ppm of 94.8% fluazifop-o-butyl (0; 0.11; 0.53; 4.3; 13.4 mg/kg/day) in diet for 2 yrs, study duration, 2, 10, 80, 250 ppm of 94.8% fluazifop-o-butyl (0; 0.11; 0.53; 4.3; 13.4 mg/kg/day) in diet for 2 yrs, study duration); “inactive; negative” (Species: Rat, Strain/Sex: Wistar/Male (60/Group), Route: Oral, 2, 10, 80, 250 ppm of 94.8% fluazifop-o-butyl (0; 0.08; 0.41; 3.3; 10.2 mg/kg/day) in diet for 2 yrs, study duration, 2, 10, 80, 250 ppm of 94.8% fluazifop-o-butyl (0; 0.08; 0.41; 3.3; 10.2 mg/kg/day) in diet for 2 yrs, study duration).

With `CC[C@H](C)[C@H]1O[C@]2(C=C[C@@H]1C)C[C@@H]1C[C@@H](C/C=C(\C)[C@@H](O[C@H]3C[C@H](OC)[C@@H](O[C@H]4C[C@H](OC)[C@@H](NC)[C@H](C)O4)[C@H](C)O3)[C@@H](C)/C=C/C=C3\CO[C@@H]4[C@H](O)C(C)=C[C@@H](C(=O)O1)[C@]34O)O2`, the carcinogen call is, setting by setting: (Species: Mouse, Strain/Sex: Strain not specified/Female (50/Group), Route: Oral, 0.5, 2.5, 12.5 (lowered to 7.5 at wk 48) mg/kg/day in the diet for 79 wk, study duration 79 wk, 0.5, 2.5, 12.5 (lowered to 7.5 at wk 48) mg/kg/day in the diet for 79 wk, study duration 79 wk) “inactive; negative”; (Species: Mouse, Strain/Sex: Strain not specified/Male (50/Group), Route: Oral, 0.5, 2.5, 12.5 (lowered to 7.5 at wk 9 and to 5 at wk 31) mg/kg/day in the diet for 79 wk, study duration 79 wk, 0.5, 2.5, 12.5 (lowered to 7.5 at wk 9 and to 5 at wk 31) mg/kg/day in the diet for 79 wk, study duration 79 wk) “inactive; negative”; (Species: Rat, Strain/Sex: Strain not specified/Female (65/Group), Route: Oral, 0.25, 1, 5 (lowered to 2.5 at wk 10) mg/kg/day in the diet for 105 wk, study duration 105 wk, 0.25, 1, 5 (lowered to 2.5 at wk 10) mg/kg/day in the diet for 105 wk, study duration 105 wk) “inactive; negative”; (Species: Rat, Strain/Sex: Strain not specified/Male (65/Group), Route: Oral, 0.25, 1, 5 (lowered to 2.5 at wk 6) mg/kg/day in the diet for 105 wk, study duration 105 wk, 0.25, 1, 5 (lowered to 2.5 at wk 6) mg/kg/day in the diet for 105 wk, study duration 105 wk) “inactive; negative”.

Regarding `COP(=O)(OC)OC(=CCl)c1cc(Cl)c(Cl)cc1Cl`, the carcinogen call (Species: MOUSE, Strain/Sex: B6C3F1/MALE, Route: ORAL, 8000, 16000 PPM IN DIET, 8000, 16000 PPM IN DIET, Tumor Site: Type of Lesion: LIVER: NEOPLASTIC NODULE OR HEPATOCELLULAR CARCINOMA) is “active; positive” and the carcinogen call (Species: RAT, Strain/Sex: OSBORNE-MENDEL/MALE, Route: ORAL, 4250, 8500 PPM IN DIET, TWA, 4250, 8500 PPM IN DIET, TWA) was “inactive; negative”.

With `Oc1cc2c(c3ccc4ccccc4c13)CCC2`, the carcinogen call (Species: MOUSE, Strain/Sex: TO/MALE, FEMALE, Route: DERMAL, 50 UG (10 µL OF A 0.5% W/V TOLUENE SOLUTION) 2/WK FOR 70 WK (STUDY DURATION: 70 WK), Tumor Site: Type of Lesion: SKIN: PAPILLOMA OR CARCINOMA) was “active; positive”.

Take `C1=CC2OC2C=C1` (stereo unspecified): the carcinogen call (Species: MOUSE, Strain/Sex: SWISS/FEMALE, Route: INTRAPERITONEAL, 7.4, 18.6 UMOL ADMINISTERED AS 3 UNEQUAL DOSES (1/7, 2/7, AND 4/7 OF THE TOTAL DOSE) OVER A 2-WK PERIOD (STUDY DURATI, 7.4, 18.6 UMOL ADMINISTERED AS 3 UNEQUAL DOSES (1/7, 2/7, AND 4/7 OF THE TOTAL DOSE) OVER A 2-WK PERIOD (STUDY DURATI) is “inactive; negative” and the carcinogen call (Species: MOUSE, Strain/Sex: SWISS/MALE, Route: INTRAPERITONEAL, 7.4, 18.6 UMOL ADMINISTERED AS 3 UNEQUAL DOSES (1/7, 2/7, AND 4/7 OF THE TOTAL DOSE) OVER A 2-WK PERIOD (STUDY DURATI, 7.4, 18.6 UMOL ADMINISTERED AS 3 UNEQUAL DOSES (1/7, 2/7, AND 4/7 OF THE TOTAL DOSE) OVER A 2-WK PERIOD (STUDY DURATI) is “inactive; negative”.

Consider `CCC[CH2][Sn]([CH2]CCC)([O]C(C)=O)[O]C(C)=O`, for which the carcinogen call was “inactive; negative” (Species: MOUSE, Strain/Sex: B6C3F1/FEMALE, Route: ORAL, 76, 152 PPM IN DIET, TWA, 76, 152 PPM IN DIET, TWA); “inactive; negative” (Species: MOUSE, Strain/Sex: B6C3F1/MALE, Route: ORAL, 76, 152 PPM IN DIET, TWA, 76, 152 PPM IN DIET, TWA); “inactive; negative” (Species: RAT, Strain/Sex: F344/MALE, Route: ORAL, 66.5, 133 PPM IN DIET, TWA, 66.5, 133 PPM IN DIET, TWA).

In the case of `O=NN1CCNCC1`, under “Species: RAT, Strain/Sex: F344/FEMALE, Route: INTRAVESICAL, 3.8 G (TOTAL DOSE) INJECTED INTO BLADDER 2/WK OVER 48 WK (STUDY DURATION: 102 WK), Tumor Site: Type of Lesion: NASAL CAVITY: TUMOR, BLADDER: TUMOR”, the carcinogen call is “active; positive”.

The values above are taken from PubChem BioAssay AID1259411 (Chemical Carcinogenesis Research Information System (CCRIS), 2018).
